Data taken from patent US20230138729A1, “Coumarin Derivatives of Sugar Analogs and Uses Thereof” (Rubedo Life Sciences, Inc., priority 2021, published 2023).

Experiments:
[1] = target: T1, Recombinant human GLB1 (rhGLB1) (Homo sapiens, UniProt P16278); assay: Enzymatic hydrolysis by recombinant human GLB1 (fluorescence reaction velocity); format: biochemical; settings: compound 500 uM; for Average percent of MU-Gal reaction velocity: pH 4.4, 37° C., relative to positive control MU-Gal; for rhGLB1 substrate: pH 4.4 McIlvaine Buffer, 37° C.
T1 sequence (P16278 29-677): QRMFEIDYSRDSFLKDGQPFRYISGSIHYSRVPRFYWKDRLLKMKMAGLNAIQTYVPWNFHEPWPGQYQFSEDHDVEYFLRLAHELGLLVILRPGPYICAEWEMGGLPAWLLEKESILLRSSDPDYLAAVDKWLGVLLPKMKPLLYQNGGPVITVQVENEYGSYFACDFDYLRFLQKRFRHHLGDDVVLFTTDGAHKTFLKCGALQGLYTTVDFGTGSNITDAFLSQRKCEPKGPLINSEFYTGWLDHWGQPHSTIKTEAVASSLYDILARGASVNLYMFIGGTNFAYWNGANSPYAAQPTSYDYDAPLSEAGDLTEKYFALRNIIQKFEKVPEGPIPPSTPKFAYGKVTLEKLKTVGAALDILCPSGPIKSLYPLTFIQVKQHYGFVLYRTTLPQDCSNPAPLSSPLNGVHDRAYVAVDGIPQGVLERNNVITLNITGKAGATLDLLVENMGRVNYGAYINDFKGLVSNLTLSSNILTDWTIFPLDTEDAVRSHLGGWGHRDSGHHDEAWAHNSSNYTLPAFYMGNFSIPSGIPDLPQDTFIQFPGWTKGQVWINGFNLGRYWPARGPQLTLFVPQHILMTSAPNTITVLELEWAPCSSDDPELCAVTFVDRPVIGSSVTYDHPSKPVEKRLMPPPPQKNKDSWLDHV
Description: (§1) Compounds were added to wells of a black-walled clear bottom 96 well plate at a concentration of […]. 4-methylumbelliferyl-alpha-L-fucopyranoside (referred to as MU-Fuc, CAS 54322-38-2) or 4-methylumbelliferyl-beta-D-galactopyranoside (referred to as MU-Gal, CAS 6160-78-7) were included as positive control compounds. Recombinant human FUCA1 (1-25 nM) or GLB1 (2-50 nM) in reaction buffer comprised of pH 4.4 McIlvaine Buffer, 2 mM dithiothreitol and 0.1% (v/v) Tween-20 was added to the wells. Enzyme-free controls were included to check for spontaneous compound hydrolysis. The plate was shaken and incubated at 37° C. in the plate reader. Every 5 minutes, fluorescence was read at the excitation wavelength of 330 nm and the emission wavelength of 450 nm for up to 3 hours. Linear regressions were calculated during the linear phase of the reaction to calculate the reaction velocity at each concentration of compound. Reaction velocities for compounds at 500 uM were compared as a percentage of the appropriate positive control compound.
Hydrolysis by the recombinant human GLB1 (rhGLB1) enzyme of modified galactose sugars conjugated to 4-methylumbelliferone was assessed by quantifying the generation of fluorescence over time as described in Example 10 and is compiled in Table 1, supra. Reaction rates of each compound were compared to the hydrolysis rate of the unmodified galactose conjugate MU-Gal. Of the modified galactose compounds tested, compound 42 was rapidly hydrolyzed, at a rate about 8% of that of MU-Gal. Compounds 33 and 6 were hydrolyzed with reaction velocities about 4% or 3% of that of MU-Gal, respectively. Compounds 35, 31, and 27 were hydrolyzed by rhGLB1, but slowly compared to MU-Gal with rates less than 2% of that of MU-Gal.

[2] = tested on: T47D breast cancer cells (sgNTC control); assay: Cellular hydrolysis of compounds in live T47D control cells (4-MU fluorescence); format: cell-based; settings: compound 30 uM, naked sugar and acetylated version; for Average percent of product relative to 26 at 72 hours in T47D control cells: modified galactose conjugates
Description: (§2) T47D breast cancer cells were cultured in RPMI 1640 medium containing 10% heat inactivated fetal bovine serum. Cell lines were infected with lentiviral construct(s) containing S. pyogenes Cas9 and sgRNA(s) targeting the gene(s) of interest (sgNTC, non-targeting control; sgFUCA1_1, FUCA1 knockout). Infected cells were selected by antibiotic treatment. To assess the cellular hydrolysis of compounds, cells were seeded at 3-20,000 cells per well into 96-well plates and incubated at 37° C. with 5% CO2. The next day, compounds (30 uM) were added to the cells. Wells containing only compounds in media were included as background fluorescence controls. 4-methylumbelliferyl-alpha-L-fucopyranoside (referred to as MU-Fuc, CAS 54322-38-2) or 4-methylumbelliferyl-2,3,4,6-tetra-O-acetyl-beta-D-galactopyranoside (CAS 6160-79-8) were included as positive controls. A 4-methylumbelliferone (referred to as 4-MU, CAS 90-33-5) standard ladder ranging from 39 to 5000 pmoles was added to each cell line. Fluorescence was read at the excitation wavelength of 330 nm and the emission wavelength of 450 nm on the plate reader every 24 hours for 72 hours. The plate was returned to the 37° C. 5% CO2 incubator between readings. A linear regression was performed to determine the slope of the line relating fluorescence to pmoles of 4-MU standard at each time point. The average cell-free background fluorescence for each compound at each time point was subtracted from all compound sample fluorescence measurements. Compound sample fluorescence was converted to pmoles of 4-MU by dividing by the slope of the 4-MU linear regression. The amount of 4-MU present at 72 hours for each compound in each cell line was compared as a percentage of the appropriate positive control compound.
The hydrolysis of modified galactose sugars conjugated to 4-methylumbelliferone in live cells was assessed by incubating the compounds in media with T47D breast cancer cells for 3 days and quantifying the generation of fluorescence over time as described in Example 11 and is compiled in Table 3, supra. […]

[3] = target: T2, Recombinant human FUCA1 (rhFUCA1) (Homo sapiens, UniProt P04066); assay: Enzymatic hydrolysis by recombinant human FUCA1 (fluorescence reaction velocity); format: biochemical; settings: compound 500 uM; for Average reaction velocity relative to MU-Fuc (%): pH 4.4, 37° C., relative to positive control MU-Fuc; for rhFUCA1 substrate: pH 4.4 McIlvaine Buffer, 37° C.
T2 sequence (P04066 32-466): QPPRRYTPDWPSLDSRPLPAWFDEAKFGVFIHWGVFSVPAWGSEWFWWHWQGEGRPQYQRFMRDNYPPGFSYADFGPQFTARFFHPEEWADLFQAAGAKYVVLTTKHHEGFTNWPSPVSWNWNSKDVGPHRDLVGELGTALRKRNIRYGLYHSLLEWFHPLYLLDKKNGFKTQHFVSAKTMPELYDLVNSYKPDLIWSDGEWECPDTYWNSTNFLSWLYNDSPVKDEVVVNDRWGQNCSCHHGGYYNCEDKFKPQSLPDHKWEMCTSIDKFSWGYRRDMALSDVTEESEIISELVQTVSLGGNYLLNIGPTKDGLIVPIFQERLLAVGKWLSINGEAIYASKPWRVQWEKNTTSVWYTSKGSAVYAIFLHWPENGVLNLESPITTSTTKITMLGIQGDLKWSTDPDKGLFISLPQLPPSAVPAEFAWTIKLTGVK
Description: as §1
Hydrolysis by the recombinant human FUCA1 enzyme (rhFUCA1) of modified fucose sugars conjugated to 4-methylumbelliferone or 7-amino-4-methylcoumarin was assessed by quantifying the generation of fluorescence over time as described in Example 10 and is compiled in Table 1, supra. Reaction rates of each compound were compared to the hydrolysis of the unmodified fucose conjugate MU-Fuc (14). Compound 43 was hydrolyzed by rhFUCA1 at a velocity about 35% of that of MU-Fuc. The reaction rate of 19 with rhFUCA1 was about 30% of that of MU-Fuc.

[4] = tested on: T47D FUCA1 knockout cells; assay: Cellular hydrolysis in T47D FUCA1 knockout cells versus T47D control cells; format: cell-based; settings: compound 30 uM
Description: as §2, with “4-methylumbelliferyl-alpha-L-fucopyranoside (referred to as MU-Fuc, CAS 54322-38-2) or 4-methylumbelliferyl-2,3,4,6-tetra-O-acetyl-beta-D-galactopyranoside (CAS 6160-79-8) were included as positive controls. A 4-methylumbelliferone (referred to as 4-MU, CAS 90-33-5) standard ladder ranging from 39 to 5000 pmoles was added to each cell line.” left out, “The plate was returned to the 37° C.” left out, “The amount of 4-MU present at 72 hours for each compound in each cell line was compared as a percentage of the appropriate positive control compound.” left out

Molecule	rhGLB1 substrate [1]	rhFUCA1 substrate [3]	Average percent of MU-Gal reaction velocity [1] [%]	other results
Cc1cc(=O)oc2cc(O[C@H]3C[C@H](O)[C@H](O)[C@H](C)O3)ccc12 [Compound 19, (2S,3R,4S,6S)-2-methyl-6-((4-methyl-2-oxo-2H-chromen-7-yl)oxy)tetrahydro-2H-pyran-3,4-diyl diol]		yes		
Cc1cc(=O)oc2cc(O[C@@H]3O[C@H](CO)C[C@H](O)[C@H]3O)ccc12 [Compound 33]	yes			
COc1ccc(C2O[C@H]3[C@H](O)[C@H](Oc4ccc5c(C)cc(=O)oc5c4)O[C@@H](C)[C@H]3O2)cc1 (stereo partly drawn) [Compound 43, 7-(((3aR,4S,6S,7S,7aS)-7-hydroxy-2-(4-methoxyphenyl)-4-methyltetrahydro-3aH-[1,3]dioxolo[4,5-c]pyran-6-yl)oxy)-4-methyl-2H-chromen-2-one]		yes		
CC(=O)O[C@H]1[C@H](OC(C)=O)[C@H](Oc2ccc3c(C)cc(=O)oc3c2)O[C@@H](C)[C@H]1OC(C)=O [Compound 44]				Average percent of product formed by each compound at 72 hours in T47D FUCA1 knockout cells relative to product formed in T47D control cells [4]: 8%
Cc1cc(=O)oc2cc(NC(=O)OCc3ccc(NC(=O)O[C@@H]4O[C@@H](C)[C@@H](O)[C@@H](O)[C@@H]4O)cc3)ccc12 [Compound 59, [4-[[(2S,3S,4R,5S,6S)-3,4,5-trihydroxy-6-methyl-tetrahydropyran-2-yl]oxycarbonylamino]phenyl]methyl N-(4-methyl-2-oxo-chromen-7-yl)carbamate]		yes		
Cc1cc(=O)oc2cc(O[C@@H]3O[C@H](CO)[C@H](O)[C@H](O)[C@H]3O)ccc12 [MU-Gal, 4-methylumbelliferyl-beta-D-galactopyranoside, reference compound]	yes		100	
(2R,3S,4S,5R,6S)-2-(acetoxymethyl)-5-fluoro-6-((4-methyl-2-oxo-2H-chromen-7-yl)oxy)tetrahydro-2H-pyran-3,4-diyl diol [Compound 20]	not hydrolyzed and no		0	Average percent of product relative to 26 at 72 hours in T47D control cells [2]: 0%

More lines, main results first:

rhGLB1 substrate [1]	rhFUCA1 substrate [3]	Molecule	Average percent of MU-Gal reaction velocity [1] [%]	other results
yes	yes	Cc1cc(=O)oc2cc(O[C@@H]3O[C@@H](C)[C@@H](O)[C@@H](O)[C@@H]3O)ccc12 [Compound 14, 4-methyl-7-(((2S,3S,4R,5S,6S)-3,4,5-trihydroxy-6-methyltetrahydro-2H-pyran-2-yl)oxy)-2H-chromen-2-one, reference compound]	7.6	Average percent of product relative to MU-Fuc (14) at 72 hours by T47D control cells ([2]; modified fucose conjugates): 100%; Average reaction velocity relative to MU-Fuc (%) [3]: 100%
not hydrolyzed and no		Cc1cc(=O)oc2cc(O[C@H]3C[C@@H](O)[C@@H](O)[C@@H](CO)O3)ccc12 [Compound 24]	0	
yes		Cc1cc(=O)oc2cc(O[C@@H]3O[C@H](CO)[C@H](O)[C@H](F)[C@H]3O)ccc12 [Compound 31]		
yes		Cc1cc(=O)oc2cc(O[C@@H]3O[C@H](CO)[C@H](O)C[C@H]3O)ccc12 [Compound 35]		
	yes	Cc1cc(=O)oc2cc(NC(=O)OCc3ccc(O[C@@H]4O[C@@H](C)[C@@H](O)[C@@H](O)[C@@H]4O)cc3)ccc12 [Compound 50, [4-[(2S,3S,4R,5S,6S)-3,4,5-trihydroxy-6-methyl-tetrahydropyran-2-yl]oxyphenyl]methyl N-(4-methyl-2-oxo-chromen-7-yl)carbamate]		Average reaction velocity relative to MU-Fuc (%) [3]: 16.7%
yes		(2S,3R,4R,5S,6S)-5-fluoro-2-methyl-6((4-methyl-2-oxo-2H-chromen-7-yl)oxy)tetrahydro-2H-pyran-3,4-diyl diacetate [Compound 27]		Average percent of product relative to 26 at 72 hours in T47D control cells [2]: 13%
